# Laboratory results: PubChem BioAssay AID1605 (NINDS Approved Drug Screening Program, 2009)
# Test system: Cells expressing FALS mutant SOD1, cell death protection
# Assay: cytoprotection in mutant SOD1 ALS cell model – familial ALS SOD1 mutant (AID 1605)
row,SMILES,EC50 [µM]
1,Nc1nc2ncc(CNc3ccc(C(=O)N[C@@H](CCC(=O)O)C(=O)O)cc3)nc2c(=O)[nH]1,785
2,CN1CC[C@]23c4c5ccc(O)c4O[C@H]2C(=O)CCC3[C@H]1C5 (some centres not stated),3410
3,CCC(=O)c1c(O)cc(O)cc1O,157
4,C[C@H]1C(=O)O[C@@H]2CCN3CC=C(COC(=O)[C@](C)(O)[C@]1(C)O)[C@H]23,239
5,CC(N)Cc1ccc2c(c1)OCO2 (configuration not stated),2120
6,COc1cc(C)c2c(=O)cc(-c3ccccc3)oc2c1,45.8
7,CC(C)CC1NC(=O)CNC1=O (configuration not stated),0.0222
8,NC[C@H]1O[C@H](O[C@H]2C(O[C@@H]3O[C@H](CO)[C@@H](O)[C@H]3O)[C@@H](O)[C@H](N)C[C@@H]2N)[C@H](N)[C@@H](O)[C@@H]1O (some centres not stated),5790
9,C1CNCCN1,7130
10,CC(CCc1ccccc1)NC(C)C(O)c1ccc(O)cc1 (configuration not stated),76.9
11,COC(=O)/C(=C1\OC(=O)C(c2ccccc2)C1=O)c1ccccc1 (configuration not stated),3940
12,CN1C(=O)CN=C(c2ccccc2)c2cc(Cl)ccc21,118
13,CCn1cc(C(=O)O)c(=O)c2cc3c(cc21)OCO3,2.38
14,CC(NC(=O)C(NC(=O)OCc1ccccc1)C(C)C)C(=O)NC(CC(=O)O)C(=O)OC(F)F (configuration not stated),916
15,CCCC(C)C1(CC)C(=O)N=C(S)NC1=O (configuration not stated),29.9
16,COc1ccc2[nH]cc(CCNC(C)=O)c2c1,178
17,CC/C(=C(/CC)c1ccc(O)cc1)c1ccc(O)cc1,0.0327
18,Cc1ccc(C(=O)C(C)CN2CCCCC2)cc1 (configuration not stated),19.1
19,CN[C@@H]1[C@H](O)[C@H](NC)[C@H]2O[C@@]3(O)C(=O)C[C@@H](C)O[C@H]3OC2[C@H]1O (some centres not stated),0.0222

row,SMILES,EC50 [µM]
1,NCC(CC(=O)O)c1ccc(Cl)cc1 (configuration not stated),0.38
2,C[C@]12C=CC(=O)C=C1CCC1C2C(=O)C[C@@]2(C)C1CC[C@]2(O)C(=O)CO (some centres not stated),2610
3,CC[C@@H](CO)NC(=O)[C@@H]1C=C2c3cccc4[nH]cc(c34)C[C@H]2N(C)C1,2890
4,Oc1cc(O)c2c(c1)O[C@H](c1ccc(O)c(O)c1)[C@@H](O)C2,73.1
5,CC[C@@H]1C(=O)OC[C@@H]1Cc1cncn1C,3060
6,O=C(O)CCC(=O)OC[C@@H](NC(=O)C(Cl)Cl)[C@H](O)c1ccc([N+](=O)[O-])cc1,1.1
7,CN(C)c1ccc(O)c2c1C[C@H]1C[C@H]3[C@H](N(C)C)C(=O)C(C(N)=O)=C(O)[C@@]3(O)C(=O)C1=C2O,14.4
8,CCC1(c2ccccc2)C(=O)NCNC1=O,741
9,O=C1O[C@@H](CO)[C@H](O)[C@@H](O)[C@@H]1O,9.33
10,CCCC(=O)Nc1ccc(OCC(O)CNC(C)C)c(C(C)=O)c1 (configuration not stated),48.8
11,O=C(OCC(O)CO)c1ccccc1Nc1ccnc2cc(Cl)ccc12 (configuration not stated),3200
12,NCCC(O)C(=O)N[C@@H]1C[C@H](N)[C@@H](O[C@H]2O[C@H](CN)[C@@H](O)[C@H](O)[C@H]2N)[C@H](OC2O[C@H](CO)[C@H](O)[C@H]2O)[C@H]1O (some centres not stated),0.2
13,NC(=O)NC1NC(=O)NC1=O (configuration not stated),0.0224
14,O=[N+]([O-])c1cc([As](=O)(O)O)ccc1O,71.9
15,O=c1cc(-c2ccccc2)oc2cc(O)cc(O)c12,6.47
16,Cc1cc(C2CCCCC2)n(O)c(=O)c1,30.9
17,COC(=O)C1=C(C)NC(C)=C(C(=O)OC)C1c1ccccc1[N+](=O)[O-],28.9
18,CN(C)/N=N/c1nc[nH]c1C(N)=O,82
